# Assay results from patent publication US8314079B2, “Hyaluronic acid oligosaccharide fractions and drugs containing the same” (Seikagaku Corporation, priority 2000, dated 2012).
# What was measured:
# SD male rats [1] = experiment: Gastric ulcer caused by arrest by water immersion in rats; format: in vivo, rat
# Description: A test substance was dissolved in carboxymethylcellulose (CMC) to obtain a test solution for administration. The concentration was determined depending on the dose mentioned below so that the volume of the solution to be administered should become 10 mL/kg.
# Moreover, as a positive control solution, a conventional agent for treating gastritis and gastric ulcer (teprenone, geranylgeranylacetone, trade name: Selbex, Eisai) dissolved in CMC was used. The concentration was determined so that the dose and the volume of the solution to be administered should become 1 mg/kg (clinical dose) and 10 mL/kg, respectively. As a negative control solution, 0.5% CMC was used.
# SD male rats of 5-week old were divided into a “negative control solution” administered group (n=8), “HA4 4 mg/kg” administered group (n=8), “HA4 20 mg/kg” administered group (n=8), “HA4 100 mg/kg” administered group (n=8) and “positive control solution” administered group (n=8).
# The rats of the groups were starved from 16:00 of the day before the first administration day, orally administered with each of the aforementioned solutions at 8:00 of the next day and arrested by water immersion. The arrest by water immersion was continued until 8:00 of the next day (24 hours). In the course of the arrest, each solution was administered in the same manner as the first administration at 16:00 and 24:00.
# Then, the rats were dissected, and the stomachs were extracted. The extracted stomachs were expanded by injection of 10% buffered formalin to smoothen the holds and fixed. Then, the blood adhering to walls of stomachs was removed by washing with water.
# The area ratio of ulcerous portion degenerated in a dark brown color (ulcer area/glandular stomach area) was measured by using an image analysis apparatus (Image-Pro PLUS™ Version 3.0.1, produced by Media Cybernetics). The symbols * and ** in FIG. 48 indicate significant differences with p<0.05 and p<0.01, respectively (Williams multiple range test).
# SD male rats [2] = experiment: Carbon tetrachloride hepatopathy model; format: in vivo, rat
# Description: A test substance was dissolved in physiological saline to obtain a test solution for administration. The concentration was determined depending on the dose mentioned below so that the volume of the solution to be administered should become 5 mL/kg.
# Moreover, as a positive control solution, FAD (flavine adenine dinucleotide, Wakamoto Pharmaceutical), of which effect on the carbon tetrachloride hepatopathy model had been reported (Yakubutsu Ryouhou (Pharmacotherapy), vol. 9, Special edition, pp. 46-53), was used at a dose of 10 mg/kg. Further, physiological saline was used as a negative control solution.
# SD male rats of 5-week old were divided into a “negative control solution” administered group (n=8), “HA4 2 mg/kg” administered group (n=8), “HA4 10 mg/kg” administered group (n=8), “HA4 50 mg/kg” administered group (n=8), “positive control solution” administered group (n=8) and “normal” group (n=8).
# The rats of the groups were starved from 16:00 of the day before the first administration day, orally administered with 100 mg/kg of carbon tetrachloride (CCl4) before 8:00 of the next day and then intraperitoneally administered with each of the aforementioned solutions at 8:00. Thereafter, the rats were bred with maintaining starvation, and administered with each of the aforementioned solutions in the same manner as the first administration at 16:00 and 24:00. The rats were fed after the administration at 24:00 and dissected at 8:00 on the next day.
# After the dissection, blood was collected, and GOT activity and leucocyte count were measured. The GOT activity was measured by using a clinical chemistry autoanalyzer (COBAS MIRA S, Nippon Roche), and the leucocyte count was measured by using an automated hematology analyzer (Sysmex K-2000, produced by Sysmex).
# IL-10 in peripheral blood was measured by using IL-10 Rat ELISA (produced by ENDOGEN). IL-8 was measured by using Panatest A Series Rat CINC-1 (IL-8) (Panapharm Laboratories). The symbol of ** in FIGS. 51 and 52 indicates presence of significant difference with p<0.01 (Williams multiple range test).
# [3] = HA4 2, 10, 50 mg/kg intraperitoneal, dose dependence
structure (smiles),measurement,setting,value
"CC(=O)N[C@H]1[C@H](O[C@H]2[C@H](O)[C@@H](O)[C@H](O[C@H]3[C@H](O)[C@@H](CO)OC(O)[C@@H]3NC(C)=O)O[C@@H]2C(=O)O)O[C@H](CO)[C@@H](O)[C@@H]1O[C@@H]1O[C@H](C(=O)O)[C@@H](O)[C@H](O)[C@H]1O.[Na].[Na] (stereo partly drawn) [HA4, sodium β-D-glucopyranosyluronate-(1→3)-2-acetamido-2-deoxy-β-D-glucopyranosyl-(1→4)-(sodium β-D-glucopyranosyluronate)-(1→3)-2-acetamido-2-deoxy-D-glucopyranose]",area ratio of ulcerous portion (ulcer area/glandular stomach area),"SD male rats [1]; 20 mg/kg oral, compared with positive control solution (teprenone 1 mg/kg)",lower than that observed for the positive control solution group
same,area ratio of ulcerous portion (ulcer area/glandular stomach area),"SD male rats [1]; 100 mg/kg oral, compared with positive control solution (teprenone 1 mg/kg)",lower than that observed for the positive control solution group
same,area ratio of ulcerous portion (ulcer area/glandular stomach area),"SD male rats [1]; all HA4 groups (4, 20, 100 mg/kg, oral, three administrations), compared with negative control solution group",significantly reduced
same,GOT activity,"SD male rats [2]; HA4 50 mg/kg administered group, intraperitoneal, compared with negative control solution group, p<0.05",significant reduction
same,blood IL-10 level,"SD male rats [2]; HA4 50 mg/kg, compared with negative control solution group, p<0.01",significantly higher
same,blood IL-8 level,SD male rats [2]; [3],decreased in a manner dependent on the dose of HA4
same,blood IL-10 level,SD male rats [2]; [3],increased in a manner dependent on the dose of HA4
same,peripheral leucocyte count,SD male rats [2]; HA4 groups compared with FAD 10 mg/kg (positive control),decreased compared even with FAD
same,peripheral leucocyte count,"SD male rats [2]; all HA4 groups (2, 10, 50 mg/kg intraperitoneal), compared with negative control solution group",significant decrease
